Literature values in patent US20050065094A1, “Use of telmisartan for the prevention and treatment of vascular headache” (Boehringer Ingelheim International GmbH, priority 2003, published 2005).

Assays:
[1] = system: patients suffering from migraine; conditions: placebo-controlled crossover
[2] = system: patients having mild/moderate hypertension; conditions: placebo-controlled

## CCOc1nc2cccc(C(=O)O)c2n1Cc1ccc(-c2ccccc2-c2nnn[nH]2)cc1 [candesartan]
[1]
  tolerability profile: good tolerability profile

## CCCCC1=NC2(CCCC2)C(=O)N1Cc1ccc(-c2ccccc2-c2nnn[nH]2)cc1 [irbesartan]
[2]
  incidence of headache: significant reduction in the incidence of headache
